Earlier results on 1 molecule are cited in patent US20080260785A1, “PAROXETINE COMPOSITIONS” (priority 2005, published 2008).

For the data set the following is noted: hydrochloride hemihydrate.

With `Cl.Fc1ccc([C@@H]2CCNC[C@H]2COc2ccc3c(c2)OCO3)cc1` [Paroxetine, (−)-trans-4R-(4′-fluorophenyl)-3S-[(3′,4′-methylenedioxyphenoxy)methyl]piperidine], the solubility in water is 5.4 mg/mL.
